Like-named read-outs stand apart in the source and are kept apart here.
Key:
SARS virus = system: SARS virus; design: species or system SARS virus (coronavirus)
Serratia bacterium = system: Serratia bacterium; design: species or system Serratia species

O=C(O)CCCCCCCO [8-hydroxyoctanoic acid]
conformation of the SARS virion (AFM picture) (SARS virus; FIG. 9B, a few minutes after treatment): disruption | conformation of the SARS virion (AFM picture) (SARS virus; FIG. 9C, a few more minutes into treatment): collapsed further more | conformation of the SARS virion (AFM picture) (SARS virus; FIG. 9D, final stage of treatment): completely killed | surface roughness of the bacterium measured by AFM (Serratia bacterium): increased | AFM height of the enterovirus virion after treatment (enterovirus): about 1,300 nm
